# Tests used:
# Type in all cases: ADME, organism-based
# [1] = Tmax in RA patient at 7.5 to 25 mg, po; conditions: human, in vivo
# [2] = Oral bioavailability in human; conditions: in vivo
# [3] = Tmax in RA patient at 7.5 to 25 mg, im; conditions: human, in vivo
compound,measurement,setting,value
CN(Cc1cnc2nc(N)nc(N)c2n1)c1ccc(C(=O)N[C@@H](CCC(=O)O)C(=O)O)cc1 [METHOTREXATE],Tmax,[1],1.5 h
same,bioavailability,[2],50 to 80%
same,Tmax,[3],1.3 h

# From ChEMBL document CHEMBL4265941, “Side effects of methotrexate therapy for rheumatoid arthritis: A systematic review” (Eur J Med Chem, 2018)
